# Where two headings read alike, the source gives them in different places.
# What was measured:
# Experiment in all cases: MIC, agar incorporation method
# S. aureus ATCC 25923 = type: cell-based, Staphylococcus aureus
# S. aureus (MRSA) 21299 = type: cell-based, Staphylococcus aureus
# [1] = system: S. aureus (MRSA 33) Cipro R; type: cell-based, Staphylococcus aureus
# (MRSA) 562 = type: cell-based, Staphylococcus aureus
# S. epidermidis 823 = type: cell-based, Staphylococcus epidermidis
# S. epidermidis 358 = type: cell-based, Staphylococcus epidermidis
# S. haemo ATCC 29970 = type: cell-based
# E. faecalis SP 346 (VRE) = type: cell-based
# E. faecium 6A (VRE) = type: cell-based, Enterococcus faecium
# E. faecium 398(VRE) = type: cell-based, Enterococcus faecium
# Salmonella 205 = type: cell-based; conditions: S. No. 26, Salmonella 205
# Method in brief: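 Doubling dilutions of compound in DMSO were incorporated into Mueller-Hinton agar; 10^4 CFU/spot inoculated from 0.5 McFarland suspensions and incubated 18 h (24 h for MRSN studies). MIC = lowest concentration without visible growth; valid only when ATCC reference strains gave in-range MICs.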
# E. durans 581 = type: cell-based
# E. coli 25922 = type: cell-based
# K. oxytoca 49131 = type: cell-based
# P. aeruginosa ATCC 27853 = type: cell-based
# Acinetobacter 9956 = type: cell-based
# S. pneumoniae AB-3 = type: cell-based, Streptococcus pneumoniae
# S. pneumoniae AB4 = type: cell-based, Streptococcus pneumoniae
# S. pneumoniae CS1221 = type: cell-based, Streptococcus pneumoniae
# S. pneumoniae AB 14 = type: cell-based, Streptococcus pneumoniae
# S. pneumoniae 217 = type: cell-based, Streptococcus pneumoniae
# S. pneumoniae AB 16 = type: cell-based, Streptococcus pneumoniae
# S. pneumoniae AB 22 = type: cell-based, Streptococcus pneumoniae
# S. pneumoniae AB 23 = type: cell-based, Streptococcus pneumoniae
# S. pneumoniae AB 30 = type: cell-based, Streptococcus pneumoniae
# S. pneumoniae ATCC 49619 = type: cell-based, Streptococcus pneumoniae
# S. pneumoniae AB 34 = type: cell-based, Streptococcus pneumoniae
# S. pyogenes 20361 = type: cell-based, Streptococcus pyogenes
# S. pneumoniae 1251 = type: cell-based, Streptococcus pneumoniae
# S pneumoniae 1294. = type: cell-based, Streptococcus pneumoniae
# S. pneumoniae 1256 = type: cell-based, Streptococcus pneumoniae
# S. pneumoniae 1275 = type: cell-based, Streptococcus pneumoniae
# [2] = Staphylococcus aureus, ATCC25923
# [3] = Staphylococcus epidermidis, 823
# [4] = Staphylococcus epidermidis, 358
# [5] = Pseudomonas aeruginosa, ATCC27853
# [6] = Streptococcus pneumoniae, CS1221
# [7] = Streptococcus pneumoniae, ATCC49619
# [8] = Streptococcus pneumoniae, 1294.
smiles,measurement,setting,value
"CC(=O)NC[C@H]1CN(c2ccc(N3CCOCC3)c(F)c2)C(=O)O1 [Linezolid, reference compound]",MIC,S. aureus ATCC 25923; [2],2 µg/mL
same,MIC,"S. aureus (MRSA) 21299; Staphylococcus aureus, MRSA",1 µg/mL
same,MIC,"[1]; Staphylococcus aureus, MRSA",1 µg/mL
same,MIC,"(MRSA) 562; Staphylococcus aureus, MRSA",1 µg/mL
same,MIC,S. epidermidis 823; [3],< 0.5 µg/mL
same,MIC,S. epidermidis 358; [4],1 µg/mL
same,MIC,S. haemo ATCC 29970,< 0.5 µg/mL
same,MIC,"E. faecalis SP 346 (VRE); Enterococcus faecalis, VRE",2 µg/mL
same,MIC,"E. faecium 6A (VRE); Enterococcus faecium, VRE",2 µg/mL
same,MIC,"E. faecium 398(VRE); Enterococcus faecium, VRE",1 µg/mL
same,MIC,Salmonella 205; read-out: MIC,> 16 µg/mL
same,MIC,"E. durans 581; Enterococcus durans, 581",1 µg/mL
same,MIC,"E. coli 25922; Escherichia coli, 25922",> 16 µg/mL
same,MIC,"K. oxytoca 49131; Klebsiella oxytoca, 49131",> 16 µg/mL
same,MIC,P. aeruginosa ATCC 27853; [5],> 16 µg/mL
same,MIC,"Acinetobacter 9956; Acinetobacter, 9956",> 16 µg/mL
same,MIC,"S. pneumoniae AB-3; Streptococcus pneumoniae, AB3",0.25 µg/mL
same,MIC,"S. pneumoniae AB4; Streptococcus pneumoniae, AB4",0.25 µg/mL
same,MIC,S. pneumoniae CS1221; [6],0.25 µg/mL
same,MIC,"S. pneumoniae AB 14; Streptococcus pneumoniae, AB14",1 µg/mL
same,MIC,"S. pneumoniae 217; Streptococcus pneumoniae, 217",1 µg/mL
same,MIC,"S. pneumoniae AB 16; Streptococcus pneumoniae, AB16",1 µg/mL
same,MIC,"S. pneumoniae AB 22; Streptococcus pneumoniae, AB22",1 µg/mL
same,MIC,"S. pneumoniae AB 23; Streptococcus pneumoniae, AB23",1 µg/mL
same,MIC,"S. pneumoniae AB 30; Streptococcus pneumoniae, AB30",1 µg/mL
same,MIC,S. pneumoniae ATCC 49619; [7],1 µg/mL
same,MIC,"S. pneumoniae AB 34; Streptococcus pneumoniae, AB34",2 µg/mL
same,MIC,"S. pyogenes 20361; Streptococcus pyogenes, 20361",1 µg/mL
same,MIC,"S. pneumoniae 1251; Streptococcus pneumoniae, 1251",1 µg/mL
same,MIC,S pneumoniae 1294.; [8],1 µg/mL
same,MIC,"S. pneumoniae 1256; Streptococcus pneumoniae, 1256",1 µg/mL
same,MIC,"S. pneumoniae 1275; Streptococcus pneumoniae, 1275",1 µg/mL
"CN[C@H](CC(C)C)C(=O)N[C@H]1C(=O)N[C@@H](CC(N)=O)C(=O)N[C@H]2C(=O)N[C@H]3C(=O)N[C@H](C(=O)N[C@H](C(=O)O)c4cc(O)cc(O)c4-c4cc3ccc4O)[C@H](O)c3ccc(c(Cl)c3)Oc3cc2cc(c3O[C@@H]2O[C@H](CO)[C@@H](O)[C@H](O)[C@H]2O[C@H]2C[C@](C)(N)[C@H](O)[C@H](C)O2)Oc2ccc(cc2Cl)[C@H]1O [Vancomycin, reference compound]",MIC,S. aureus ATCC 25923; [2],1 µg/mL
same,MIC,"S. aureus (MRSA) 21299; Staphylococcus aureus, MRSA",0.5 µg/mL
same,MIC,"[1]; Staphylococcus aureus, MRSA",0.5 µg/mL
same,MIC,"(MRSA) 562; Staphylococcus aureus, MRSA",1 µg/mL
same,MIC,S. epidermidis 823; [3],2 µg/mL
same,MIC,S. epidermidis 358; [4],2 µg/mL
same,MIC,S. haemo ATCC 29970,1 µg/mL
same,MIC,"E. faecalis SP 346 (VRE); Enterococcus faecalis, VRE",> 16 µg/mL
same,MIC,"E. faecium 6A (VRE); Enterococcus faecium, VRE",> 16 µg/mL
same,MIC,"E. faecium 398(VRE); Enterococcus faecium, VRE",> 16 µg/mL
same,MIC,Salmonella 205; read-out: MIC,> 16 µg/mL
same,MIC,"E. durans 581; Enterococcus durans, 581",> 16 µg/mL
same,MIC,"E. coli 25922; Escherichia coli, 25922",> 16 µg/mL
same,MIC,"K. oxytoca 49131; Klebsiella oxytoca, 49131",> 16 µg/mL
same,MIC,P. aeruginosa ATCC 27853; [5],> 16 µg/mL
same,MIC,"Acinetobacter 9956; Acinetobacter, 9956",> 16 µg/mL
same,MIC,"S. pneumoniae AB-3; Streptococcus pneumoniae, AB3",0.5 µg/mL
same,MIC,"S. pneumoniae AB4; Streptococcus pneumoniae, AB4",0.25 µg/mL
same,MIC,S. pneumoniae CS1221; [6],0.25 µg/mL
same,MIC,"S. pneumoniae AB 14; Streptococcus pneumoniae, AB14",0.25 µg/mL
same,MIC,"S. pneumoniae 217; Streptococcus pneumoniae, 217",0.5 µg/mL
same,MIC,"S. pneumoniae AB 16; Streptococcus pneumoniae, AB16",0.25 µg/mL
same,MIC,"S. pneumoniae AB 22; Streptococcus pneumoniae, AB22",0.25 µg/mL
same,MIC,"S. pneumoniae AB 23; Streptococcus pneumoniae, AB23",0.25 µg/mL
same,MIC,"S. pneumoniae AB 30; Streptococcus pneumoniae, AB30",0.25 µg/mL
same,MIC,S. pneumoniae ATCC 49619; [7],0.25 µg/mL
same,MIC,"S. pneumoniae AB 34; Streptococcus pneumoniae, AB34",0.25 µg/mL
same,MIC,"S. pyogenes 20361; Streptococcus pyogenes, 20361",0.5 µg/mL
same,MIC,"S. pneumoniae 1251; Streptococcus pneumoniae, 1251",0.25 µg/mL
same,MIC,S pneumoniae 1294.; [8],0.5 µg/mL
same,MIC,"S. pneumoniae 1256; Streptococcus pneumoniae, 1256",0.5 µg/mL
same,MIC,"S. pneumoniae 1275; Streptococcus pneumoniae, 1275",0.5 µg/mL
"O=C(NC[C@H]1CN(c2ccc(N3CCN(c4ccc([N+](=O)[O-])s4)CC3)c(F)c2)C(=O)O1)C(Cl)Cl [compound 9, (S)—N-[[3-[-3-Fluoro-4-[N-1-(5-nitro-2-thienyl)-piperazinyl]phenyl] -2-oxo-5-oxazolidinyl]methyl]dichloroacetamide]",MIC,"S. aureus ATCC 25923; S. No. 1, organism cell empty",2 µg/mL
same,MIC,"S. aureus (MRSA) 21299; S. No. 5, S. aureus (MRSA) 21299",1 µg/mL
same,MIC,"[1]; S. No. 7, S. aureus (MRSA 33) Cipro R",1 µg/mL
same,MIC,"(MRSA) 562; S. No. 8, (MRSA) 562",1 µg/mL
same,MIC,"S. epidermidis 823; S. No. 12, S. epidermidis 823",0.5 µg/mL
same,MIC,"S. epidermidis 358; S. No. 14, S. epidermidis 358",0.5 µg/mL
same,MIC,"S. haemo ATCC 29970; S. No. 15, S. haemo ATCC 29970",0.5 µg/mL
same,MIC,"E. faecalis SP 346 (VRE); S. No. 20, E. faecalis SP 346 (VRE)",0.5 µg/mL
same,MIC,"E. faecium 6A (VRE); S. No. 21, E. faecium 6A (VRE)",0.5 µg/mL
same,MIC,"E. faecium 398(VRE); S. No. 22, E. faecium 398(VRE)",0.5 µg/mL
same,MIC,Salmonella 205,>8 µg/mL
same,MIC,"E. durans 581; S. No. 24, E. durans 581",0.5 µg/mL
same,MIC,"E. coli 25922; S. No. 25, E. coli 25922",>8 µg/mL
same,MIC,"K. oxytoca 49131; S. No. 27, K. oxytoca 49131",>8 µg/mL
same,MIC,"P. aeruginosa ATCC 27853; S. No. 28, P. aeruginosa ATCC 27853",>8 µg/mL
same,MIC,"Acinetobacter 9956; S. No. 30, Acinetobacter 9956",>8 µg/mL
same,MIC,"S. pneumoniae AB-3; S. No. 32, S. pneumoniae AB-3",0.25 µg/mL
same,MIC,"S. pneumoniae AB4; S. No. 33, S. pneumoniae AB4",0.25 µg/mL
same,MIC,"S. pneumoniae CS1221; S. No. 34, S. pneumoniae CS1221",0.25 µg/mL
same,MIC,"S. pneumoniae AB 14; S. No. 37, S. pneumoniae AB 14",0.25 µg/mL
same,MIC,"S. pneumoniae 217; S. No. 38, S. pneumoniae 217",0.25 µg/mL
same,MIC,"S. pneumoniae AB 16; S. No. 39, S. pneumoniae AB 16",0.25 µg/mL
same,MIC,"S. pneumoniae AB 22; S. No. 42, S. pneumoniae AB 22",0.25 µg/mL
same,MIC,"S. pneumoniae AB 23; S. No. 43, S. pneumoniae AB 23",0.25 µg/mL
same,MIC,"S. pneumoniae AB 30; S. No. 47, S. pneumoniae AB 30",0.25 µg/mL
same,MIC,"S. pneumoniae ATCC 49619; S. No. 48, S. pneumoniae ATCC 49619",0.25 µg/mL
same,MIC,"S. pneumoniae AB 34; S. No. 49, S. pneumoniae AB 34",0.5 µg/mL
same,MIC,"S. pyogenes 20361; S. No. 53, S. pyogenes 20361",0.5 µg/mL
same,MIC,"S. pneumoniae 1251; S. No. 54, S. pneumoniae 1251",0.25 µg/mL
same,MIC,"S pneumoniae 1294.; S. No. 55, S pneumoniae 1294.",0.5 µg/mL
same,MIC,"S. pneumoniae 1256; S. No. 56, S. pneumoniae 1256",0.25 µg/mL
same,MIC,"S. pneumoniae 1275; S. No. 57, S. pneumoniae 1275",0.25 µg/mL
